Where no end group is shown, it is not given here. The star is where a group is joined. dabcyl = dabcyl quencher on the Lys side chain, CN(C)c1ccc(/N=N/c2ccc(C(=O)*)cc2)cc1; K(FAM) = lysine with FAM attached to its side chain
Assays:
[1] = 1H longitudinal relaxivity (NMRD); format: physicochemical; details: salt only, 50 mM NEM, pH=7.0, 20 MHz
Procedure: Smart contrast agents with larger relaxivity values imply lower MRI detection limits for the target species and are advantageous over contrast agents with lower relaxivity values.
The incubation was conducted in the dark, at room temperature, and lasted for 3 hours. The longitudinal relaxivity was measured at field strengths between 0.01 MHz to 20 MHz. […] The underlining mechanisms responsible for the observed behavior have not been well characterized to date, but likely contain contributions from several factors including gadolinium-copper ion exchange, alterations in peptide solubility, peptide structural rearrangements, remaining synthesis impurities, and buffer interactions with both copper and gadolinium ions.

[2] = tested on: Aβ accumulation; details: transgenic mice; cited from earlier work
[3] = tested on: endogenous β-amyloid peptides; details: cerebrospinal fluid; read-out: EC50 for conversion of endogenous β-amyloid peptides into insoluble aggregates; cited from earlier work
[4] = Fluorescence (FRET) titration with copper(II) ions; format: binding; details: for effect of the mutation on copper binding: mutant versus P1P
[5] = Fluorescence (FRET) titration with zinc(II) ions; format: binding; details: for effect of the mutation on zinc binding: mutant versus P1P
[6] = Fluorescence (FRET) titration with calcium(II) ions; format: binding
[7] = Fluorescence (FRET) titration with magnesium(II) ions; format: binding
[8] = Fluorescence (FRET) titration with gadolinium(III) ions; format: binding; details: for Gd^+3 binding, effect on FRET activity: 10 μM peptide, pH dependence

Compound | effect of the mutation on copper binding [4] | effect of the mutation on zinc binding [5] | binding with Ca^+2 [6] | binding with Mg^+2 [7] | Gd^+3 binding, effect on FRET activity [8] | other results
O=S(=O)([O-])[O-].[Cu+2] [CuSO4] | – | – | – | – | – | relaxivity [1]: 0.4 mM⁻¹ s⁻¹
[Cl][Gd]([Cl])[Cl] [GdCl3] | – | – | – | – | – | relaxivity [1]: 5.1 mM⁻¹ s⁻¹
Oc1c(I)cc(Cl)c2cccnc12 [clioquinol] | – | – | – | – | – | inhibition of Aβ accumulation [2]: significant inhibition of Aβ accumulation
[Zn+2] [zinc ions] | – | – | – | – | – | EC50 [3]: 120 to 140 µM
K(FAM)PAGGGWGQK(dabcyl) ({K(FAM)}-PAGGGWGQK(dabcyl)) [P17, mutant version of P1P, histidine to alanine] | most critical | most critical | No binding | No binding | marked increase in Gd^+3 binding with increasing pH | –
K(FAM)PHGGGAGQK(dabcyl) ({K(FAM)}-PHGGGAGQK(dabcyl)) [P16, mutant version of P1P, tryptophan to alanine] | significant effect | significant effect | No binding | No binding | marked increase in Gd^+3 binding with increasing pH | –
K(FAM)PHGGGWGAK(dabcyl) ({K(FAM)}-PHGGGWGAK(dabcyl)) [P18, mutant version of P1P, glutamine to alanine] | either had no effect, or even increased the peptide binding strength | either had no effect, or even increased the peptide binding strength | No binding | No binding | marked increase in Gd^+3 binding with increasing pH | effect of the mutation on binding affinity for copper ([4]; pH ≦7): little effect; effect of the mutation on binding activity with copper ([4]; pH=7.6): increase the binding activity; effect of the mutation on binding affinity for zinc ([5]; pH ≦7): little effect; effect of the mutation on binding activity with zinc ([5]; pH=7.6): increase the binding activity; effect of the mutation on affinity of Gd^+3 ions ([8]; versus base P1P peptide): reduce the affinity

From patent publication US20100129290A1, “SMART CONTRAST AGENT AND DETECTION METHOD FOR DETECTING TRANSITION METAL IONS” (I.S.T. corporation, priority 2008, published 2010)
